Series [1] concerns cats. The series can be described thus: IOP-lowering activity in cats. It counts as in vivo. An excerpt:
Some obvious drawbacks and reasons for the lack of consistent observations noted above are probably related to species differences in the effects of BK on IOP changes and on the fact that BK is a labile peptide that can easily and rapidly be inactivated by kininases and other proteases when it comes into contact with body fluids (Hall, Pharmacol. Ther., 56, 131-190, 1992). Additionally, topical ocular administration of peptides such as BK are confounded by the potential lack of or little bioavailability through the cornea to reach the anterior segment of the eye. […] This is probably related to the attainment of a relevant concentration in the aqueous humor and ciliary body when the compound was administered topical ocularly.

The subject of series [2] is Human trabecular meshwork (TM) cells. In words: PGE2 production (RIA) in human trabecular meshwork cells. It counts as cell-based. Particulars: 1 h at 37° C., BK 100 nM or 1 μM, fluprostenol 1 μM, non-peptide agonists 1 μM or 10 μM, FIG. 6. The procedure: The ability of BK agonists to stimulate prostaglandin E2 (PGE2) production was examined as follows. Human trabecular meshwork (TM) cells were seeded in culture plates and allowed to reach confluence. […] Fluprostenol was used as a positive control. After this time the assay was terminated by placing the assay plates on ice and by the addition of 100 μL of a cell-lysis reagent supplied with the PGE2 radioimmunoassay (RIA) kit (Amersham Pharmacia Biotech, Arlington Heights, Ill.). All reagents and standards supplied in the RIA kit were prepared and the RIA performed according to the manufacturer's instructions. Assay buffer, diluted prostaglandin E2 (PGE2) standard and supernatant from the cell-based experiment (diluted 1:100 v/v) were then pipetted into appropriate tubes as specified in the kit instructions. […]
After this incubation, all tubes were placed in an ice-bath and 1 ml cold precipitating reagent supplied in the kit was added to the tubes, the content mixed and incubated for 25 min at 4° C. […] The supernatants of all tubes were decanted as specified in the kit instructions and the RIA samples analyzed on a gamma-counter. The levels of PGE2 generated by the test agent were then quantified in comparison with the PGE2-standard curve. Dose-response data for the test agent were constructed and the potency and intrinsic activity determined as described above for other assays.

Series [3] concerns the target T1, B2-receptors in h-TM cells (Homo sapiens, UniProt P30411).
T1 construct: B2-receptor proteins in h-TM, h-CM and h-NPE cells; endogenous in cells; host or cells: human trabecular meshwork (h-TM), human ciliary muscle (h-CM) and human non-pigmented ciliary epithelial (h-NPE) cells
T1 sequence (P30411 1-391): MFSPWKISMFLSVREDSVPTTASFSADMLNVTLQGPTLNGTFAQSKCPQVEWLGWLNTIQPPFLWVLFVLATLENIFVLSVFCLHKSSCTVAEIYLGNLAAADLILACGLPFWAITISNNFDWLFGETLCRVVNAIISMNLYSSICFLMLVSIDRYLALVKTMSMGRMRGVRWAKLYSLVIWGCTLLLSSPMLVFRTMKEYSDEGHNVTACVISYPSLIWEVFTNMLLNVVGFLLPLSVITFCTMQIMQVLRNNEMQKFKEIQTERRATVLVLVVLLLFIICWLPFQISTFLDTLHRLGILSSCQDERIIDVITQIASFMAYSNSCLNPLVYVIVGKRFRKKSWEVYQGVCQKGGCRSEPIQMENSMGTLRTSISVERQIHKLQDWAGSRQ
The series can be described thus: [Ca2+]i mobilization (FLIPR) in h-TM cells, agonist mode. Type of series: cell-based. The following applies: h-TM cells, mean ± SEM. The procedure:
On the day of the experiment, one vial of FLIPR Calcium Assay Kit dye is re-suspended in 50 mL of a FLIPR buffer consisting of Hank's Balanced Salt Solution (HBSS), 20 mM HEPES, and 2.5 mM probenecid, pH 7.4. Cells are loaded with the calcium-sensitive dye by addition of an equal volume (50 μL) to each well of the 96-well plate and incubated with dye for 1 h at 23° C. After this time, the test compound plate and cell plate are placed in the FLIPR instrument. At the beginning of an experimental run, a signal test is performed to check the basal fluorescence signal from the dye-loaded cells and the uniformity of the signal across the plate. The basal fluorescence is adjusted between 8000-12000 counts by modifying the exposure time, the camera F-stop, or the laser power. Instrument settings for a typical assay are the following: laser power 0.3-0.6 W, camera F-stop F/2, and exposure time 0.4 sec.
Fluorescence data are collected in real-time at 1.0 sec intervals for the first 60 secs and at 6.0 sec intervals for an additional 120 secs. […] The data are then analyzed using an automated, iterative, sigmoidal curve-fitting computer program to obtain the potency and intrinsic activities of the test agents as previously described (Sharif et al. J. Pharmacol. Exp. Ther. 286: 1094-1102, 1998; Sharif et al. Invest. Ophthalmol. Vis. Sci. 39:2562-2571, 1998; Kelly et al. J. Pharmacol. Exp. Ther. 304: 238-245, 2003). The sources of materials and reagents for such assays can be found in the references cited above.

Series [4] in a line: Ocular pharmacokinetic study in rabbit eyes, single topical ocular dose. Type of series: in vivo. Particulars: single 300 μg topical ocular dose; for concentration at 0.5 hr: 0.5 hr post-dosing; for concentration at 1 hr: 1.0 hr post-dosing; for concentration at 3 hr: 3 hr post-dosing; for concentration at 6 hr: 6 hr post-dosing. The procedure:
In order to better understand the time-course of action of FR-190997, a pharmacokinetic study was performed in rabbit eyes using a single 300 μg topical ocular dose of FR-190997. […] Due to the activation of multiple signaling pathways by BK (see above), and presumably FR-190997, and the convergence and amplification of the down-stream biochemical reactions in the target cells/tissues, it is quite possible that activation of only a few BK receptors by FR-190997 may result in quite profound IOP-lowering.

[5] abbreviates: aqueous humor, read-out: Aqueous Humor Concentration.
Setting [6] is: ciliary body, read-out: Ciliary Body Concentration.

Read-outs that look alike come from different tables or passages of the source.

Broadly, the Emax is the size of the effect at its maximum, as opposed to the concentration needed. In general, EC50 refers to the concentration giving half of the maximal effect. Turning to `CNC(=O)c1ccc(/C=C/C(=O)NCC(=O)N(C)c2ccc(Cl)c(COc3cccc4c(OCc5ccccn5)cc(C)nc34)c2Cl)cc1` [FR-190997], in series [1], the “ability to lower IOP” value was “unable to lower IOP”. Besides, the “production of endogenous prostaglandins (PGE2)” value in series [2] was “stimulated production of endogenous prostaglandins”. The maximum response (Emax) in series [3] (HTM, read-out: Intrinsic Activity (Emax, % max relative to BK)) worked out at 86%. Further, the concentration for a half-maximal effect (EC50) in series [3] (read-out: Potency (EC50), [Ca2+]i mobilization) is 167 ± 29 nM. In addition, in series [4] (setting [5]), the concentration at 0.5 hr stood at 0.9 ± 0.2 nM, the concentration at 1 hr amounted to 16 ± 4.7 nM, the concentration at 3 hr came to 139 ± 114 nM and the concentration at 6 hr is 16.6 ± 4.6 nM. For the same compound, the concentration at 1.5 hr in series [4] (aqueous humor, 1.5 hr post-dosing) was 3.1 ± 1.1 nM. Moreover, in series [4] (setting [6]), the concentration at 0.5 hr is 2.75 ± 1.7 nM, the concentration at 1 hr stood at 5.52 ± 1.68 nM, the concentration at 3 hr was found to be 26.4 ± 7.9 nM and the concentration at 6 hr came out at 37 ± 10.6 nM. Also, in series [4], the “peak aqueous humor level” value came out at 139 nM and the “time of peak aqueous humor level post-dosing” value is 3 h.
